27 compounds from US7842695B2, “Substituted pyrazole compounds” (Merck Patent GmbH, priority 2003, dated 2010) can be followed below.

pIC50: −log10 of the molar value.

For orientation: pIC50 means the IC50 on a negative log10 scale, so that one unit is a factor of ten. Low values mean a high IC50, high ones a low IC50.

The target of one assay is 5-HT2A receptors (UniProt P14842). Nature of the assay: in-vitro affinity to 5-HT2A receptors, [3H]ketanserine displacement (Example A1). Format: binding. An excerpt:
The 5-HT2A receptors are exposed both to [^3H]ketanserine (a substance known for its affinity to the receptor) and also to the test compound. The decrease in the affinity of [^3H]ketanserine to the receptor is an indication of the affinity of the test substance to the 5-HT2A receptor.

The target of a further assay is T1, 5 HT2C receptor (Homo sapiens, UniProt P28335).
T1 sequence (P28335 33-458): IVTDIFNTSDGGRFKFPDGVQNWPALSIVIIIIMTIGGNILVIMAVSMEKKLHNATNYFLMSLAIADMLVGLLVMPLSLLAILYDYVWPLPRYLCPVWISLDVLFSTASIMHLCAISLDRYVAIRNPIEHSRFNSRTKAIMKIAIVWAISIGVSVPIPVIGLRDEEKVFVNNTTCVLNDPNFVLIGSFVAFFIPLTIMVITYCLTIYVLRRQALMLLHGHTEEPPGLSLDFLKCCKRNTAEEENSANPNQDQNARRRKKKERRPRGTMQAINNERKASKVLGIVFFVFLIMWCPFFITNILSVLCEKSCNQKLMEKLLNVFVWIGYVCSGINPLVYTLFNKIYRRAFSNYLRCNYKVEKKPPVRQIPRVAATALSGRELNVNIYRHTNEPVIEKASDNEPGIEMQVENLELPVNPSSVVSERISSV
Nature of the assay: affinity to the 5 HT2C receptor. Format: binding.

Consider `CCN(CC)Cc1cnn(-c2ccc(-c3ccc(OC)cc3)cc2)c1-c1ccco1` [Example 601, Diethyl-[5-furan-2-yl-1-(4′-methoxybiphenyl-4-yl)-1H-pyrazol-4-ylmethyl]amine], for which the values for the pIC50 on 5-HT2A receptors and against 5 HT2C receptor were 7.59 and 6.00, respectively.

Take `CCN(CC)Cc1cnn(-c2ccc(-c3ccc4c(c3)OCO4)cc2)c1-c1ccco1` [Example 602, [1-(4-Benzo-1,3-dioxol-5-ylphenyl)-5-furan-2-yl-1H-pyrazol-4-ylmethyl]diethylamine]: the negative logarithm of the IC50 (pIC50) on 5-HT2A receptors was 7.59; against 5 HT2C receptor, 6.21.

On to `Fc1cccc(-c2ccc(-n3ncc(CN4CCN(C5CCCC5)CC4)c3-c3ccco3)cc2)c1` [Example 605, 1-Cyclopentyl-4-[1-(3′-fluorobiphenyl-4-yl)-5-furan-2-yl-1H-pyrazol-4-ylmethyl]piperazine], for which the values for the pIC50 at 5-HT2A receptors and at 5 HT2C receptor were 7.57 and 5.53, respectively.

As for `CCN(CC)Cc1cnn(-c2ccc(-c3cccc(F)c3)cc2)c1-c1ccco1` [Example 606, Diethyl-[1-(3′-fluorobiphenyl-4-yl)-5-furan-2-yl-1H-pyrazol-4-ylmethyl]amine], the negative-log IC50 (pIC50) at 5-HT2A receptors was 7.57; against 5 HT2C receptor, 6.00.

On to `COc1ccc(-c2c(CN3CCN(CCN(C)C)CC3)cnn2-c2ccc(-c3ccc(F)cc3)cc2)cc1` [Example 607, (2-{4-[1-(4′-Fluorobiphenyl-4-yl)-5-(4-methoxyphenyl)-1H-pyrazol-4-ylmethyl]-1-piperazinyl}ethyl)dimethylamine], for which the negative logarithm of the IC50 (pIC50) was 7.54 on 5-HT2A receptors and 6.00 on 5 HT2C receptor.

On to `CN1CCN(Cc2cnn(-c3ccc(-c4ccsc4)cc3)c2-c2ccccc2)CC1` [Example 610, 1-Methyl-4-[5-phenyl-1-(4-thiophen-3-ylphenyl)-1H-pyrazol-4-ylmethyl]piperazine], for which the negative-log IC50 (pIC50) is 7.51 on 5-HT2A receptors and 6.31 on 5 HT2C receptor.

On to `CCN1CCN(Cc2cnn(-c3ccc(-c4ccc(F)cc4)cc3)c2-n2cccc2)CC1` [Example 613, 1-Ethyl-4-[1-(4′-fluorobiphenyl-4-yl)-5-pyrrol-1-yl-1H-pyrazol-4-ylmethyl]piperazine], for which the negative logarithm of the IC50 (pIC50) on 5-HT2A receptors is 7.49; on 5 HT2C receptor, 6.00.

As for `OC1CCN(Cc2cnn(-c3ccc(-c4ccc(F)cc4)cn3)c2-c2ccco2)C1` (stereo not drawn) [Example 614, 1-{1-[5-(4-Fluorophenyl)pyridin-2-yl]-5-furan-2-yl-1H-pyrazol-4-ylmethyl}pyrrolidin-3-ol], the pIC50 on 5-HT2A receptors is 7.49; against 5 HT2C receptor, 6.00.

`OC1CCN(Cc2cnn(-c3ccc(-c4ccc(F)cc4)cc3)c2-c2cccc(Cl)c2)C1` (stereo not drawn) [Example 618, 1-[5-(3-Chlorophenyl)-1-(4′-fluorobiphenyl-4-yl)-1H-pyrazol-4-ylmethyl]pyrrolidin-3-ol]: the negative-log IC50 (pIC50) on 5-HT2A receptors was 7.48; at 5 HT2C receptor it was 6.00.

Take `CN1CCN(Cc2cnn(-c3ccc(-c4ccc(F)cc4)cc3)c2-c2cccc(Cl)c2)CC1` [Example 619, 1-[5-(3-Chlorophenyl)-1-(4′-fluorobiphenyl-4-yl)-1H-pyrazol-4-ylmethyl]-4-methylpiperazine]: the results for the negative logarithm of the IC50 (pIC50) at 5-HT2A receptors and against 5 HT2C receptor were 7.47 and 6.00, respectively.

Turning to `CN1CCN(Cc2cnn(-c3ccc(-c4cc(F)c(OC(F)(F)F)c(F)c4)cc3)c2-c2ccccc2F)CC1` [Example 623, 1-[1-(3′,5′-Difluoro-4′-trifluoromethoxybiphenyl-4-yl)-5-(2-fluorophenyl)-1H-pyrazol-4-ylmethyl]-4-methylpiperazine], the pIC50 on 5-HT2A receptors was 7.46; at 5 HT2C receptor, 6.74.

Consider `CN1CCN(Cc2cnn(-c3ccc(-c4cc(F)ccc4F)cc3)c2-c2ccco2)CC1` [Example 624, 1-[1-(2′,5′-Difluorobiphenyl-4-yl)-5-furan-2-yl-1H-pyrazol-4-ylmethyl]-4-methylpiperazine], for which the results for the negative-log IC50 (pIC50) at 5-HT2A receptors and against 5 HT2C receptor were 7.44 and 6.55, respectively.

Consider `Cc1ccc(-c2ccc(-n3ncc(CN4CCN(C)CC4)c3-c3ccccc3F)cc2)cc1F` [Example 625, 1-[1-(3′-Fluoro-4′-methylbiphenyl-4-yl)-5-(2-fluorophenyl)-1H-pyrazol-4-ylmethyl]-4-methylpiperazine], for which the negative logarithm of the IC50 (pIC50) is 7.44 at 5-HT2A receptors and 6.21 on 5 HT2C receptor.

`CN1CCN(Cc2cnn(-c3ccc(-c4ccc(N(C)C)cc4)cc3)c2-c2ccccc2F)CC1` [Example 626, {4′-[5-(2-Fluorophenyl)-4-(4-methylpiperazin-1-ylmethyl)pyrazol-1-yl]biphenyl-4-yl}dimethylamine]: the negative-log IC50 (pIC50) on 5-HT2A receptors is 7.44; on 5 HT2C receptor, 6.00.

Consider `CCN(CC)Cc1cnn(-c2ccc(-c3ccc4c(c3)OCCO4)cc2)c1-c1ccco1` [Example 630, {1-[4-(2,3-Dihydrobenzo-1,4-dioxin-6-yl)phenyl]-5-furan-2-yl-1H-pyrazol-4-ylmethyl}diethylamine], for which the pIC50 was 7.42 on 5-HT2A receptors and 6.05 against 5 HT2C receptor.

Turning to `Fc1ccc(-c2ccc(-n3ncc(CN4CCN(CCN5CCCC5)CC4)c3-c3ccco3)cc2)cc1` [Example 633, 1-[1-(4′-Fluorobiphenyl-4-yl)-5-furan-2-yl-1H-pyrazol-4-ylmethyl]-4-(2-pyrrolidin-1-ylethyl)piperazine], the negative logarithm of the IC50 (pIC50) is 7.39 at 5-HT2A receptors and 6.00 against 5 HT2C receptor.

Take `CN1CCN(Cc2cnn(-c3ccc(-c4ccc(Oc5ccccc5)cc4)cc3)c2-c2ccccc2F)CC1` [Example 634, 1-[5-(2-Fluorophenyl)-1-(4′-phenoxybiphenyl-4-yl)-1H-pyrazol-4-ylmethyl]-4-methylpiperazine]: the figures for the pIC50 at 5-HT2A receptors and against 5 HT2C receptor were 7.39 and 6.01, respectively.

Take `CN(C)CCN(C)Cc1cnn(-c2ccc(-c3ccc(F)cc3)cc2)c1-c1ccco1` [Example 635, N-[1-(4′-Fluorobiphenyl-4-yl)-5-furan-2-yl-1H-pyrazol-4-ylmethyl]-N,N′,N′-trimethylethane-1,2-diamine]: the pIC50 is 7.39 at 5-HT2A receptors and 6.00 at 5 HT2C receptor.

In the case of `OC1CCN(Cc2cnn(-c3ccc(-c4ccc(F)cc4)cc3)c2-c2ccccc2Cl)C1` (stereo not drawn) [Example 636, 1-[5-(2-Chlorophenyl)-1-(4′-fluorobiphenyl-4-yl)-1H-pyrazol-4-ylmethyl]pyrrolidin-3-ol], the pIC50 on 5-HT2A receptors was 7.38; on 5 HT2C receptor, 6.00.

Regarding `CN(C)CCN(C)Cc1cnn(-c2ccc(-c3ccc(F)cc3)cc2)c1-c1cccc(Cl)c1` [Example 639, N-[5-(3-Chlorophenyl)-1-(4′-fluorobiphenyl-4-yl)-1H-pyrazol-4-ylmethyl]-N,N′,N′-trimethylethane-1,2-diamine], the pIC50 is 7.37 at 5-HT2A receptors and 6.00 against 5 HT2C receptor.

As for `CN1CCN(C(=O)c2cnn(-c3ccccc3)c2NC(=O)c2ccccc2F)CC1` [Example 640], the pIC50 at 5-HT2A receptors was 7.36; against 5 HT2C receptor it was 6.00.

Regarding `CN1CCN(Cc2cnn(-c3ccc(-c4cccn4C(=O)OC(C)(C)C)cc3)c2-c2ccccc2F)CC1` [Example 643, tert-Butyl 2-{4-[5-(2-fluorophenyl)-4-(4-methylpiperazin-1-ylmethyl)pyrazol-1-yl]phenyl}pyrrole-1-carboxylate], the pIC50 on 5-HT2A receptors is 7.32; against 5 HT2C receptor it was 6.03.

As for `COc1ccc(-c2ccc(-n3ncc(CN4CCN(C)CC4)c3-c3ccccc3F)cc2)cc1OC` [Example 644, 1-[1-(3′,4′-Dimethoxybiphenyl-4-yl)-5-(2-fluorophenyl)-1H-pyrazol-4-ylmethyl]-4-methylpiperazine], the negative logarithm of the IC50 (pIC50) on 5-HT2A receptors was 7.31; on 5 HT2C receptor, 6.00.

`COc1ccccc1-c1c(CN2CCN(C)CC2)cnn1-c1ccc(-c2ccccc2F)cc1` [Example 647, 1-[1-(2′-Fluorobiphenyl-4-yl)-5-(2-methoxyphenyl)-1H-pyrazol-4-ylmethyl]-4-methylpiperazine]: the pIC50 is 7.28 at 5-HT2A receptors and 6.08 against 5 HT2C receptor.

Consider `CN(C)CCCN(C)Cc1cnn(-c2ccc(-c3ccc(F)cc3)cc2)c1-c1ccco1` [Example 659, N-[1-(4′-Fluorobiphenyl-4-yl)-5-furan-2-yl-1H-pyrazol-4-ylmethyl]-N,N′,N′-trimethylpropane-1,3-diamine], for which the pIC50 on 5-HT2A receptors is 7.12; against 5 HT2C receptor, 6.09.

In the case of `COc1ccccc1-c1c(CN2CCN(C)CC2)cnn1-c1ccc(-c2cc(F)ccc2F)cc1` [Example 660, 1-[1-(2′,5′-Difluorobiphenyl-4-yl)-5-(2-methoxyphenyl)-1H-pyrazol-4-ylmethyl]-4-methylpiperazine], the negative-log IC50 (pIC50) was 7.11 at 5-HT2A receptors and 6.20 against 5 HT2C receptor.

On to `CN1CCN(Cc2cnn(-c3ccc(-c4ccncc4)cc3)c2-c2ccccc2F)CC1` [Example 661, 1-[5-(2-Fluorophenyl)-1-(4-pyridin-4-ylphenyl)-1H-pyrazol-4-ylmethyl]-4-methylpiperazine], for which the values for the pIC50 on 5-HT2A receptors and on 5 HT2C receptor were 7.11 and 6.00, respectively.
